This passage reports Binding, Concentration and Kd results from ChEMBL document CHEMBL1148354, “Dye-labeled benzodiazepines: development of small ligands for receptor binding studies using fluorescence correlation spectroscopy” (J Med Chem, 2004).

For test [1], the target named is T1, GABA-A receptor; anion channel (Rattus norvegicus) (UniProt O09028+P15431+P18506+P18508+P19969+P20236+P23574+P23576+P28471+P28473+P30191+P62813+P63079+P63138+Q91ZM7+Q9ES14). The experiment in a line: Non-specific binding to GABA-A benzodiazepine receptor of rat hippocampal neurons after co-incubation with 1 uM midazolam (range is 7-10%). In kind it is tissue-based. The conditions noted are these: Hippocampus.

Test [2] deals with T1, GABA-A receptor; anion channel (Rattus norvegicus). The experiment in a line: Percent binding to GABA-A benzodiazepine receptor of rat hippocampal neurons at 2 nM. Type of test: tissue-based. The conditions noted are these: Hippocampus.
Test [3] has the same target. The test can be described thus: Saturation binding for benzodiazepine receptor of rat hippocampal neurons. Type of test: tissue-based. Particulars: Hippocampus.
Test [4] deals with GABA-A receptor; anion channel. The experiment in a line: Binding affinity for GABA-A benzodiazepine receptor of rat hippocampal neurons. Type of test: tissue-based, Hippocampus.

Usually Kd stands for the concentration at which binding is half-saturated.

“And” between values parts separate entries of the source, which are not always exact repeats. Equal values may be shown once.

Regarding `CC1N=c2c(cc3c(c2S(=O)(=O)O)Oc2c(cc4c(c2S(=O)(=O)O)NC(C)C4(C)C)C=3c2ccc(C(=O)NCCN3C(=O)CN=C(c4ccccc4F)c4cc(Cl)ccc43)cc2)C1(C)C` (centres undefined), the Binding in test [1] was 10%; in test [2], 90%. Further, the Concentration in test [3] worked out at 120 nM. In test [4], the dissociation constant Kd is 97.2 nM and 9.9 nM.
